Experimental data taken from patent publication US20020119496A1, “Nuclear magnetic resonance screening method” (priority 2000, published 2002).

Biological target: T1, human muscle fatty acid binding protein M-FABP (Homo sapiens, UniProt P05413)
T1 construct: a plasmid containing the gene coding for a 143 amino acid protein construct of M-FABP; His-tag (C); made in house; host or cells: prototrophic Escherichia coli
Assay: Site-selective NMR screening, 1H-15N fHSQC of 13C'-Val, 15N-Ala labeled M-FABP
Conditions: 1:1 mixture with M-FABP, 200 μM protein
Description: The spectra were recorded at 20° C. on a 600 MHz Varian Unity INOVA NMR spectrometer using standard techniques. The sample was prepared in 20 mM sodium phosphate buffer (10% D2O/90% H2O) pH 7.4 containing 50 mM NaCl, 10 mM DTT and 0.02% NaN3. […] (a) 2D ^1H-^15N fast-HSQC (Mori et al., 1995), (b) 2D HNCO and (c) 1D HNCO. […] Experimental times were 1 hour, 4 hours, and 20 minutes respectively.
Experimental conditions were identical to those described in FIG. 8 except the samples used for spectra b-d contained additionally 1% d-DMSO. (a-d) Reference spectrum of free M-FABP. (b) 1:1 mixture of M-FABP and compound cocktail. (c) 1:1 mixture M-FABP and compound cocktail omitting oleic acid. (d) 1:1 mixture of M-FABP and oleic acid.

T1 sequence (P05413 whole entry): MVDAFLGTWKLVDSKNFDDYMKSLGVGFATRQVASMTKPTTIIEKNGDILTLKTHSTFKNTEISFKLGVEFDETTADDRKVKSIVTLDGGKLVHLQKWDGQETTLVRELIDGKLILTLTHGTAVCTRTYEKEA

## CCCCCCCC/C=C\CCCCCCCC(=O)O [oleic acid]
  chemical shift change of alanine 33 HSQC cross peak: chemical shift change is observed
